Measurements taken from publication PMC2831638 (Biochemistry, 2010).
Entries after “also recorded” stand apart in the source; their conditions may differ. Ends that are not written are not given here.

Experiments:
[1] = tested on: Aβ42-induced toxicity in differentiated PC-12 cells; conditions: cell-viability screen; cited from earlier work
[2] = Peptide solubility, filtration assay with AAA; assay type: physicochemical; conditions: pH 7.4

Substance	toxicity of the peptide itself (in words) [1]	Max. solubility [2] [µM]	also measured
VVIA [Aβ(39–42)]	–	–	inhibition of Aβ42-induced toxicity (in words) [1]: strongest inhibitors
IGLMVGGVVIA [Aβ(32–42)]	slight toxicity	–	–
LMVGGVV [Aβ(34–40)]	–	169 ± 13	–
AEDVGSNKGA [Aβ(21–30)]	–	129 ± 5	–
KGAIIGLMVGGVVIA [Aβ(28–42)]	highly toxic itself; also recorded: higher toxicity than Aβ42 itself	–	–
